Experimental data published in PubChem BioAssay AID248 (DTP/NCI, 2004).
Where “and” joins values, the source holds several entries; their conditions need not be identical. Equal entries are not always repeated. Toxic doses and inconclusive results are not listed. No stated cut-off is given here; in the data, active means T/C of 150% or more; inactive means T/C below 125%.

System: L1210 leukemia ip in BDF1 mice, survival T/C
Test: NCI In Vivo Anticancer Drug Screen. Data for tumor model L1210 Leukemia (intraperitoneal) in B6D2F1 (BDF1) mice
Details: endpoint: mean survival time, higher = longer survival
How it was run: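 Each compound was tested against a transplantable tumor grown in mice. The endpoint was survival, with treated animals benchmarked against vehicle controls as a simple ratio.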

[1] = dose: 100.0 mg/kg/injection, schedule: Q01DX001 (ip), vehicle: Klucel (hydroxypropylcellulose) (HPC)
[2] = dose: 200.0 mg/kg/injection, schedule: Q01DX001 (ip), vehicle: Klucel (hydroxypropylcellulose) (HPC)
[3] = dose: 400.0 mg/kg/injection, schedule: Q01DX001 (ip), vehicle: Klucel (hydroxypropylcellulose) (HPC)
[4] = dose: 100.0 mg/kg/injection, schedule: Q01DX009 (ip), vehicle: Klucel (hydroxypropylcellulose) (HPC)
[5] = dose: 100.0 mg/kg/injection, schedule: Q04DX003 (ip), vehicle: Klucel (hydroxypropylcellulose) (HPC)
[6] = dose: 200.0 mg/kg/injection, schedule: Q01DX009 (ip), vehicle: Klucel (hydroxypropylcellulose) (HPC)
[7] = dose: 200.0 mg/kg/injection, schedule: Q04DX003 (ip), vehicle: Klucel (hydroxypropylcellulose) (HPC)
[8] = dose: 400.0 mg/kg/injection, schedule: Q01DX009 (ip), vehicle: Klucel (hydroxypropylcellulose) (HPC)
[9] = dose: 400.0 mg/kg/injection, schedule: Q04DX003 (ip), vehicle: Klucel (hydroxypropylcellulose) (HPC)
[10] = dose: 100.0 mg/kg/injection, schedule: Q01DX001 (ip), vehicle: carboxymethylcellulose (CMC)
[11] = dose: 200.0 mg/kg/injection, schedule: Q01DX001 (ip), vehicle: carboxymethylcellulose (CMC)
[12] = dose: 400.0 mg/kg/injection, schedule: Q01DX001 (ip), vehicle: carboxymethylcellulose (CMC)

Measured: T/C

C1O[C@@H]1[C@H]1CO1
inactive: dose: 9.5 mg/kg/injection, schedule: Q01DX001 (ip), vehicle: saline 100 % of control | dose: 19.0 mg/kg/injection, schedule: Q01DX001 (ip), vehicle: saline 97 % of control | dose: 38.0 mg/kg/injection, schedule: Q01DX001 (ip), vehicle: saline 101 % of control

O=NC1C(Cl)C2CC1C1COCC21 (stereo not given)
inactive: [1] 97 % of control | [2] 90 % of control | [3] 89 % of control

CNC(=O)OC1CCCCC1CN(C)C (stereo not given)
inactive: dose: 55.0 mg/kg/injection, schedule: Q01DX Z (ip), vehicle: saline 91 % of control | dose: 83.0 mg/kg/injection, schedule: Q01DX Z (ip), vehicle: saline 109 % of control | dose: 125.0 mg/kg/injection, schedule: Q01DX Z (ip), vehicle: saline 113 % of control

[Cu+2].[Cu+2].[O-]CCCN=Cc1ccccc1[O-].[O-]CCCN=Cc1ccccc1[O-]
inactive: dose: 75.0 mg/kg/injection, schedule: Q01DX001 (ip), vehicle: other 97 % of control | dose: 150.0 mg/kg/injection, schedule: Q01DX001 (ip), vehicle: other 111 % of control | dose: 300.0 mg/kg/injection, schedule: Q01DX001 (ip), vehicle: other 102 % of control

CCOc1ccc(Br)cc1/C=C1\N=C(c2ccccc2)OC1=O
inactive: [4] 93 % of control and 95 % of control | [5] 97 % of control and 98 % of control | [6] 93 % of control and 98 % of control | [7] 98 % of control and 89 % of control | [8] 96 % of control and 86 % of control | [9] 93 % of control and 98 % of control

CCCCCCCCC(CCCCCCCC)CCC1CCCCC1
inactive: dose: 100.0 mg/kg/injection, schedule: Q01DX001 (ip), vehicle: saline + alcohol 95 % of control | dose: 200.0 mg/kg/injection, schedule: Q01DX001 (ip), vehicle: saline + alcohol 108 % of control | dose: 400.0 mg/kg/injection, schedule: Q01DX001 (ip), vehicle: saline + alcohol 100 % of control

CCOC(=O)c1cc(C)nc(Cl)c1C#N
inactive: [10] 96 % of control | [11] 96 % of control | [12] 93 % of control

CC(=O)C(C)(C)/C(C)=C/C(=O)O
inactive: [4] 95 % of control | [5] 100 % of control | [6] 95 % of control | [7] 100 % of control | [8] 98 % of control | [9] 97 % of control

O=c1[nH]nc(S(=O)(=O)N2CCCC2)c(=O)[nH]1
inactive: [10] 98 % of control | [11] 98 % of control | [12] 93 % of control

Cc1ccc(-n2c(O)c(N=Nc3ccccc3C)c(=O)n(-c3ccc(Br)cc3)c2=S)cc1
inactive: dose: 37.5 mg/kg/injection, schedule: Q01DX001 (ip), vehicle: Klucel (hydroxypropylcellulose) (HPC) 96 % of control | dose: 75.0 mg/kg/injection, schedule: Q01DX001 (ip), vehicle: Klucel (hydroxypropylcellulose) (HPC) 101 % of control | dose: 150.0 mg/kg/injection, schedule: Q01DX001 (ip), vehicle: Klucel (hydroxypropylcellulose) (HPC) 110 % of control

CCC(C)C(NN)C(=O)O (stereo not given)
inactive: dose: 12.0 mg/kg/injection, schedule: Q01DX Z (ip), vehicle: carboxymethylcellulose (CMC) 113 % of control | dose: 25.0 mg/kg/injection, schedule: Q01DX Z (ip), vehicle: carboxymethylcellulose (CMC) 112 % of control | dose: 50.0 mg/kg/injection, schedule: Q01DX Z (ip), vehicle: carboxymethylcellulose (CMC) 110 % of control | dose: 100.0 mg/kg/injection, schedule: Q01DX Z (ip), vehicle: carboxymethylcellulose (CMC) 118 % of control | dose: 200.0 mg/kg/injection, schedule: Q01DX015 (ip), vehicle: carboxymethylcellulose (CMC) 104 % of control

Nc1c(Br)cc2c(c1Br)Cc1cc(Br)ccc1-2
inactive: dose: 200.0 mg/kg/injection, schedule: Q01DX Z (ip), vehicle: saline 109 % of control | dose: 400.0 mg/kg/injection, schedule: Q01DX Z (ip), vehicle: saline 107 % of control | dose: 800.0 mg/kg/injection, schedule: Q01DX Z (ip), vehicle: saline 112 % of control | dose: 1600.0 mg/kg/injection, schedule: Q01DX Z (ip), vehicle: saline 112 % of control

CCCCCCCCCCCCCCCCOc1ccc(C)cc1
inactive: dose: 100.0 mg/kg/injection, schedule: Q04DX003 (ip), vehicle: saline with Tween-80 100 % of control | dose: 200.0 mg/kg/injection, schedule: Q04DX003 (ip), vehicle: saline with Tween-80 103 % of control | dose: 400.0 mg/kg/injection, schedule: Q04DX003 (ip), vehicle: saline with Tween-80 97 % of control

CC(=O)Nc1ccc(Oc2ccccc2)cc1
inactive: dose: 50.0 mg/kg/injection, schedule: Q01DX009 (ip), vehicle: Klucel (hydroxypropylcellulose) (HPC) 102 % of control | [4] 101 % of control | [5] 95 % of control and 101 % of control | [6] 106 % of control | [7] 97 % of control and 100 % of control | [9] 102 % of control

COc1cc2cc(-c3cc(OC)c(OC)c(OC)c3)c3c(c2cc1OC)CNC3=O
inactive: dose: 100.0 mg/kg/injection, schedule: Q01DX009 (ip), vehicle: saline 90 % of control | dose: 100.0 mg/kg/injection, schedule: Q04DX003 (ip), vehicle: saline 93 % of control | dose: 200.0 mg/kg/injection, schedule: Q01DX009 (ip), vehicle: saline 90 % of control | dose: 200.0 mg/kg/injection, schedule: Q04DX003 (ip), vehicle: saline 101 % of control | dose: 400.0 mg/kg/injection, schedule: Q04DX003 (ip), vehicle: saline 101 % of control

Clc1ccc2c(c1)/C(=C/c1ccccc1Cl)c1cc(Cl)cc(Cl)c1-2
inactive: [1] 90 % of control | [4] 100 % of control | [5] 91 % of control | [2] 88 % of control | [6] 88 % of control | [7] 87 % of control | [3] 91 % of control | [8] 102 % of control | [9] 87 % of control

CCC1C(=O)N(c2ccc(S(=O)(=O)O)cc2)N=C1C (stereo not given)
inactive: [5] 95 % of control | [7] 95 % of control

CC(C)=CCC/C(C)=C/CO
inactive: dose: 50.0 mg/kg/injection, schedule: Q01DX009 (ip), vehicle: saline with Tween-80 92 % of control | [10] 95 % of control | dose: 100.0 mg/kg/injection, schedule: Q01DX009 (ip), vehicle: saline with Tween-80 98 % of control | [11] 108 % of control | dose: 200.0 mg/kg/injection, schedule: Q01DX009 (ip), vehicle: saline with Tween-80 98 % of control | [12] 101 % of control

O=C1C=CC(=O)N1CN1CCOCC1
inactive: dose: 3.12 mg/kg/injection, schedule: Q01DX009 (ip), vehicle: saline with Tween-80 96 % of control | dose: 6.25 mg/kg/injection, schedule: Q01DX009 (ip), vehicle: saline with Tween-80 96 % of control | dose: 12.5 mg/kg/injection, schedule: Q01DX009 (ip), vehicle: saline with Tween-80 93 % of control

C=C(Br)CNC(=O)C(C)C
inactive: dose: 5.0 mg/kg/injection, schedule: Q04DX003 (ip), vehicle: saline with Tween-80 102 % of control | dose: 10.0 mg/kg/injection, schedule: Q04DX003 (ip), vehicle: saline with Tween-80 103 % of control | dose: 20.0 mg/kg/injection, schedule: Q04DX003 (ip), vehicle: saline with Tween-80 102 % of control

O=c1cc(Nc2cccc(Cl)c2)[nH]c(=O)[nH]1
inactive: dose: 35.0 mg/kg/injection, schedule: Q01DX001 (ip), vehicle: Klucel (hydroxypropylcellulose) (HPC) 92 % of control | dose: 70.0 mg/kg/injection, schedule: Q01DX001 (ip), vehicle: Klucel (hydroxypropylcellulose) (HPC) 92 % of control | dose: 140.0 mg/kg/injection, schedule: Q01DX001 (ip), vehicle: Klucel (hydroxypropylcellulose) (HPC) 98 % of control
